Experimental data from patent US20100311726A1, “REDUCTION OF BETA-AMYLOID LEVELS BY TREATMENT WITH THE SMALL MOLECULE DIFFERENTIATION-INDUCING FACTOR” (priority 2007, published 2010).

How the values were obtained:
naïve CHO cells = test: Flow cytometry cell cycle distribution, naive CHO; type: cell-based, Chinese Hamster; conditions: 25 μM overnight
Procedure: Naïve and CHO-7W cells were collected by trypsin/EDTA treatment and counted using a haemocytometer. The cells (1×10^5) were deposited into 10 cm tissue culture dishes containing fresh media and grown for 24 hours prior to DIF-1 treatment (25 μM). Cells were grown in the presence of DIF-1 for approximately 20 hours. Cells harvested by the trypsin/EDTA treatment were suspended in hypotonic fluorochrome solution containing 50 ug/ml of propidium iodide, 0.1% sodium citrate, and 0.1% Triton X-100. Cells (5×10^4) for each sample were analyzed for fluorescence using the Massachusetts General Hospital cytology core. Cell cycle distribution was compared between vehicle and DIF-1 treated nave CHO cells, and CHO-7W cells. The percentage of cells in G0/G1, S-phase and G2/M represents the mean cell number±the standard deviation from at least 3 separate experiments.
To determine where in the cell cycle DIF-1 acts, we assessed the cell cycle distribution of naïve CHO cells using flow cytometry (FIG. 1B). CHO cells were incubated with DIF-1 (25 μM) for the indicated periods and then harvested by the trypsin/EDTA treatment, fixed and stained with propidium iodide (PI) and fluorescence of nuclei was measured. Histogram peaks are labeled by phases (G0/G1, S and G2/M). The percentages of cell number in the cell cycle phases are shown as means+/−S.E. of three independent experiments performed in duplicate. […]

human APLP1 = test: APLP1 metabolism by western blot in CHO-A1 cells; type: cell-based; conditions: 30 μM DIF-1 or 250 nM DAPT, ~20 hours
Procedure: CHO cells that stably express human APLP1, which is a closely related family member of the APPs and known γ-secretase substrate (Eggert et al., 2004), were treated with 30 μM DIF-1, DAPT or DIF-1 plus DAPT (FIG. 7). Equal numbers of CHO-A1 cells stably expressing human APLP1 cells were plated in 6-well dishes and allowed to grow overnight. The next day, the media was removed and replaced with control media (2 ml) or media containing DAPT, DIF-1 or DAPT and DIF-1. […] After washing, blots were probed with HRP-conjugated secondary antibodies (1:5000) for 1 hour at room temperature.

[1] = test system: notch intracellular domain (NICD); test: Notch intracellular domain (NICD) level; type: cell-based
APPT668A and APPT668E = test: APP processing in CHO cells expressing APP T668A or T668E; type: cell-based, human; conditions: 30 μM
Source text: To assess whether or not the decrease in phosphorylated APP seen in DIF-1 treated cells contributed mechanistically to the reduction of maturation, secretion and metabolic processing of APP^751, mutants were generated using APP^751 in which T724 (APP^751 numbering) was mutated to either an alanine residue such that phosphorylation could not occur, or a glutamic acid residue that should mimic constitutive phosphorylation of APP. APP^751, Isoform B, NM_201413 was used as a template. We essentially used Stratagene's QuickChange® Site-Directed Mutagenesis Kit (Catalog #200518) to create the desired mutations as recommended by the manufacturer with the following exceptions. The APP^751 codon for threonine 724 (ACC) was mutated to code for Alanine (A) (GCC) and Glutamic Acid (E) (GAA), respectively. The following mutagenesis primers were used to create each mutation. […]
Cells were diluted and plated in multiple 10 cm tissue culture dishes and allowed to recover overnight in Dulbecco's modified Eagle's medium containing 4.5 mg/ml D-glucose supplemented with 10% fetal bovine serum and 100 units/ml penicillin, 100 μg/ml streptomycin, 2 mM L-glutamine (Sigma) at 37° C. in a 5% CO2 atmosphere. […] Protein extracts were assessed for APPT724A and APPT724E expression levels compared to naïve cells by western blot using polyclonal anti-APP C-terminal antibodies (C66). […]

APP = APP processing (mature APP, αCTF, βCTF) by western blot; type: cell-based, human; conditions: CHO-CAB

SMILES: CCCCCC(=O)c1c(O)c(Cl)c(OC)c(Cl)c1O [DIF-1, 1-[3,5-dichloro-2,6-dihydroxy-4-methoxyphenyl]-1-hexanone]
- percentage of cells in G0/G1 (naïve CHO cells): 52.6%±0.9
- APLP1 maturation, protein levels, CTF levels (human APLP1): no effect on APLP1 maturation, protein levels or CTF production
- effect on notch intracellular domain (NICD) [1]: no effect
- effect of DIF-1 on APP maturation and CTFs in T668A or T668E mutant APP (APPT668A and APPT668E): completely abolished the effect of DIF-1 on APP maturation and the reduction of both αCTF and βCTF levels
- effect on lactacystin-induced CTF accumulation (APP; 30 μM DIF-1 with 10 μM lactacystin): greatly reduced the effect of lactacystin
- effect on ALLN-induced CTF accumulation (APP; DIF-1 with 10 μM ALLN): reduced the effect of ALLN on APP processing
